By IC50 is commonly meant the midpoint of a concentration-inhibition curve.

The target of one experiment is T1, AXL (Homo sapiens, UniProt P30530).
T1 construct: endogenous in cells; host or cells: A-172 glioblastoma cells (ATCC #CRL-1620)
T1 sequence (P30530 26-894): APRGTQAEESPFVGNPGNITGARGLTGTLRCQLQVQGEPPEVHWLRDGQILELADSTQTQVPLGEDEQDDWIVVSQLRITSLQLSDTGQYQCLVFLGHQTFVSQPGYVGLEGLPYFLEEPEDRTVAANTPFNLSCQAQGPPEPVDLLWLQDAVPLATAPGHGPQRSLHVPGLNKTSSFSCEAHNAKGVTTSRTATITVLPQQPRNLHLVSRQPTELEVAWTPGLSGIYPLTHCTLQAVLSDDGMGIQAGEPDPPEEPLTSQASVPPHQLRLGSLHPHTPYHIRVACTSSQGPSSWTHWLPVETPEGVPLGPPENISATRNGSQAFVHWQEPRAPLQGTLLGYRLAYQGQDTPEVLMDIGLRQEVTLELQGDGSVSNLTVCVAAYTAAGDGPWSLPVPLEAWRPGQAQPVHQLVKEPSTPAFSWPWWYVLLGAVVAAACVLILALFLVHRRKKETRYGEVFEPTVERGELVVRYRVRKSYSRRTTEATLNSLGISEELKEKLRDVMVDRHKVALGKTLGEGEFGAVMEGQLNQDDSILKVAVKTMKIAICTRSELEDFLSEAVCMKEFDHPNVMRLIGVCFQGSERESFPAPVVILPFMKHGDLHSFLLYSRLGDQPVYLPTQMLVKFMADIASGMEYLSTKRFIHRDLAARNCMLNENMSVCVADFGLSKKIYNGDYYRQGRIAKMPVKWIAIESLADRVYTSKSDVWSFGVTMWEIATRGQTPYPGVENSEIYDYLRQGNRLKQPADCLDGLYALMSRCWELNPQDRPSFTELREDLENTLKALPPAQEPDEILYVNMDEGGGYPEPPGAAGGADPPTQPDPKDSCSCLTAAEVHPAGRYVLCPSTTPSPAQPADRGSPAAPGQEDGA
Nature of the experiment: AXL autophosphorylation ELISA in A-172 cells. It counts as cell-based. The following applies: Table 3 Cellular Activities, Gas6-stimulated, phospho-AXL ELISA. The essentials:
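A-172 glioblastoma cells serum-starved 24 h, treated 1 h with compounds (8-point dose curve, 0.3% DMSO), then stimulated with 1 μg/mL Gas6 for 15 min. Lysate phospho-AXL quantified by ELISA against a standard; IC50 from 4-parameter logistic fit, normalised to DMSO and reference-inhibitor controls.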
On the technique in general: An ELISA detects its analyte on a solid surface through an enzyme-linked reagent.

The target of a further experiment is Met (Homo sapiens, UniProt P08581). Kind of experiment: Met autophosphorylation ELISA in PC-3 cells. The arrangement: endogenous in cells; host or cells: PC-3 prostate cancer cells (ATCC #CRL-1435). It counts as cell-based. The conditions noted are these: Table 3 Cellular Activities, HGF-stimulated, phospho-Met ELISA, read-out: c-Met IC50. The essentials:
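Serum-starved (3 h) PC-3 cells pre-incubated 1 h with compound (8-point dose curve, 0.3% DMSO), then stimulated with 100 ng/mL recombinant human HGF for 10 min. Lysate phospho-Met (panTyr) measured by sandwich ELISA; IC50 from 4-parameter logistic fit, normalised to DMSO (100%) and reference-inhibitor (0%) controls.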

Sequence of Met (P08581 25-1390): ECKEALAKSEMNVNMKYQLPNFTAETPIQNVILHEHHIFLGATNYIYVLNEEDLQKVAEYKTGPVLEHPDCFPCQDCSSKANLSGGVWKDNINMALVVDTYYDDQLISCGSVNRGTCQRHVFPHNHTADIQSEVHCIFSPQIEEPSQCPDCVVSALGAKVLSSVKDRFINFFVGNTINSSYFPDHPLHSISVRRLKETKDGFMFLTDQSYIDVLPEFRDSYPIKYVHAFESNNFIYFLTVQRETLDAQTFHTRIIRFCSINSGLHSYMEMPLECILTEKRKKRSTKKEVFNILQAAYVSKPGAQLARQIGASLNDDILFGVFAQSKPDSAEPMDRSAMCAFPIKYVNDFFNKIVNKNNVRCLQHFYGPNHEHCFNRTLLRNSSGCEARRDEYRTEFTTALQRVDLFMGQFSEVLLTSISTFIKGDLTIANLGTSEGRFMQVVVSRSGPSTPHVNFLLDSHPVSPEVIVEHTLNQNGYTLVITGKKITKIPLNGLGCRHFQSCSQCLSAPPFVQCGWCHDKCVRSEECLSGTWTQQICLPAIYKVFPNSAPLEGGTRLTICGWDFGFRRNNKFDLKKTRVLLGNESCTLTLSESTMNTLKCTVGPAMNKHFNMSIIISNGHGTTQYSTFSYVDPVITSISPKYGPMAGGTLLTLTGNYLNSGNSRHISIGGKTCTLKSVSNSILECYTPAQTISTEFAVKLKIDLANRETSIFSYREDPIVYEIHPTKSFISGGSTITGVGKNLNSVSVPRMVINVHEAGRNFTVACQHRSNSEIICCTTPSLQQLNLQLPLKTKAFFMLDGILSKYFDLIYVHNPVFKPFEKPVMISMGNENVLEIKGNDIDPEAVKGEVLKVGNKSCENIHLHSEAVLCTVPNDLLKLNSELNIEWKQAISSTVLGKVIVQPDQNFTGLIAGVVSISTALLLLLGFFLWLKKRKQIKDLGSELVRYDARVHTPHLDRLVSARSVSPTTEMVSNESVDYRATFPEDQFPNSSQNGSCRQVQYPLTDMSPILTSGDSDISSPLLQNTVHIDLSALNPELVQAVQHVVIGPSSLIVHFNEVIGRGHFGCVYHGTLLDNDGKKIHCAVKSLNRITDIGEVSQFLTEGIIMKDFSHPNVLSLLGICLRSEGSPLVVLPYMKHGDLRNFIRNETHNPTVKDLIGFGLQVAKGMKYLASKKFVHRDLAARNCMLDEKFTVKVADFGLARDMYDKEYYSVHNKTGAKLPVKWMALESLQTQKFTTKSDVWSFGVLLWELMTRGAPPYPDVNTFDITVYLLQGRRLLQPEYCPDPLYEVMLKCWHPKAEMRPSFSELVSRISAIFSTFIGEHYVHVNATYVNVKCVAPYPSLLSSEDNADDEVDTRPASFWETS

Turning to `COc1cnc2c(Oc3ccc(NC(=O)c4cn(CCF)c(C)c(-c5ccsc5)c4=O)cc3F)ccnc2c1` [Compound 330, 1-(2-Fluoroethyl)-N-[3-fluoro-4-[(7-methoxy-1,5-naphthyridin-4-yl)oxy]phenyl]-6-methyl-4-oxo-5-thiophen-3-ylpyridine-3-carboxamide], the IC50 against AXL and on Met was ≤ 100 nM in each case.

On to `COc1cc2nccc(Oc3ccc(NC(=O)c4cnc(C)c(-c5cc(C)nn5C)c4O)cc3F)c2nc1OC` [Compound 136, N-[4-[(6,7-Dimethoxy-1,5-naphthyridin-4-yl)oxy]-3-fluorophenyl]-5-(2,5-dimethylpyrazol-3-yl)-4-hydroxy-6-methylpyridine-3-carboxamide], for which the IC50 against AXL was 100 to 300 nM; on Met, ≤ 100 nM.

With `COc1cnc2c(Oc3ccc(NC(=O)c4cnc(C)c(-c5cccs5)c4O)cc3F)ccnc2c1` [Compound 100, N-[3-Fluoro-4-[(7-methoxy-1,5-naphthyridin-4-yl)oxy]phenyl]-4-hydroxy-6-methyl-5-(2-thienyl)pyridine-3-carboxamide], the IC50 against AXL and on Met was ≤ 100 nM throughout.

In the case of `COc1cc2nccc(Oc3cc(F)c(NC(=O)c4c(C)n(C)c(C)c(-c5ccco5)c4=O)cc3F)c2nc1OC` [Compound 163, N-[4-[(6,7-Dimethoxy-1,5-naphthyridin-4-yl)oxy]-2,5-difluorophenyl]-5-(furan-2-yl)-1,2,6-trimethyl-4-oxopyridine-3-carboxamide], the IC50 against AXL and at Met was ≤ 100 nM in each case.

For the compound `COc1cc2nccc(Oc3ccc(NC(=O)c4c(C)ncc(-c5ccsc5)c4O)cc3F)c2nc1OC` [Compound 127, N-[4-[(6,7-Dimethoxy-1,5-naphthyridin-4-yl)oxy]-3-fluorophenyl]-4-hydroxy-2-methyl-5-thiophen-3-ylpyridine-3-carboxamide], the IC50 against AXL and at Met was ≤ 100 nM throughout.

As for `C=CCc1ccc(-c2c(C)ncc(C(=O)Nc3ccc(Oc4ccnc5cc(OC)c(OC)nc45)c(F)c3)c2O)o1` [Compound 155, N-[4-[(6,7-Dimethoxy-1,5-naphthyridin-4-yl)oxy]-3-fluorophenyl]-4-hydroxy-6-methyl-5-(5-prop-2-enylfuran-2-yl)pyridine-3-carboxamide], the IC50 on AXL and at Met was ≤ 100 nM in each case.

Turning to `COc1cc2nccc(Oc3ccc(NC(=O)c4cc(Br)c(C)n(-c5ccc(F)cn5)c4=O)cc3F)c2nc1OC` [Compound 55, 5-Bromo-N-[4-[(6,7-dimethoxy-1,5-naphthyridin-4-yl)oxy]-3-fluorophenyl]-1-(5-fluoropyridin-2-yl)-6-methyl-2-oxopyridine-3-carboxamide], the IC50 against AXL and at Met was ≤ 100 nM each time.

In the case of `COc1cc2nccc(Oc3ccc(NC(=O)c4cnc(C)c(-c5cncs5)c4O)cc3F)c2nc1OC` [Compound 141, N-[4-[(6,7-Dimethoxy-1,5-naphthyridin-4-yl)oxy]-3-fluorophenyl]-4-hydroxy-6-methyl-5-(1,3-thiazol-5-yl)pyridine-3-carboxamide], the IC50 against AXL and on Met was ≤ 100 nM throughout.

On to `COc1cc2nccc(Oc3ccc(NC(=O)c4cn(CCF)c(C)c(-c5ccco5)c4=O)cc3F)c2nc1OC` [Compound 333, N-[4-[(6,7-Dimethoxy-1,5-naphthyridin-4-yl)oxy]-3-fluorophenyl]-1-(2-fluoroethyl)-5-(furan-2-yl)-6-methyl-4-oxopyridine-3-carboxamide], for which the IC50 against AXL and on Met was ≤ 100 nM in each case.

`COc1cc2nccc(Oc3ccc(NC(=O)c4cnc(C)c(-c5nccs5)c4O)cc3F)c2nc1OC` [Compound 143, N-[4-[(6,7-Dimethoxy-1,5-naphthyridin-4-yl)oxy]-3-fluorophenyl]-4-hydroxy-6-methyl-5-(1,3-thiazol-2-yl)pyridine-3-carboxamide]: the IC50 on AXL and at Met was ≤ 100 nM throughout.

For the compound `COc1cc2nccc(Oc3ccc(NC(=O)c4cnc(C)c(-c5ccc(C)o5)c4O)cc3F)c2nc1OC` [Compound 92, N-[4-[(6,7-Dimethoxy-1,5-naphthyridin-4-yl)oxy]-3-fluoro-phenyl]-4-hydroxy-6-methyl-5-(5-methyl-2-furyl)pyridine-3-carboxamide], the IC50 against AXL and on Met was ≤ 100 nM throughout.

With `COc1cnc2c(Oc3ccc(NC(=O)c4c(C)n(C)c(C)c(-c5cccs5)c4=O)cc3)ccnc2c1` [Compound 165, N-[4-[(7-Methoxy-1,5-naphthyridin-4-yl)oxy]phenyl]-1,2,6-trimethyl-4-oxo-5-thiophen-2-ylpyridine-3-carboxamide], the half-inhibitory concentration (IC50) on AXL and on Met was ≤ 100 nM in each case.

As for `COc1cc2nccc(Oc3ccc(NC(=O)c4c(C)nc(C)c(-c5ccc(C(C)C)o5)c4O)cc3F)c2nc1OC` [Compound 148, N-[4-[(6,7-Dimethoxy-1,5-naphthyridin-4-yl)oxy]-3-fluorophenyl]-4-hydroxy-2,6-dimethyl-5-(5-propan-2-ylfuran-2-yl)pyridine-3-carboxamide], the IC50 on AXL and on Met was ≤ 100 nM in each case.

Take `COc1cnc2c(Oc3ccc(NC(=O)c4cnc(C)c(-c5ccco5)c4O)cc3F)ccnc2c1` [Compound 96, N-[3-Fluoro-4-[(7-methoxy-1,5-naphthyridin-4-yl)oxy]phenyl]-5-(2-furyl)-4-hydroxy-6-methyl-pyridine-3-carboxamide]: the IC50 at AXL and at Met was ≤ 100 nM each time.

For `COc1cc2nccc(Oc3ccc(NC(=O)c4cnc(C)c(-c5cscn5)c4O)cc3F)c2nc1OC` [Compound 142, N-[4-[(6,7-Dimethoxy-1,5-naphthyridin-4-yl)oxy]-3-fluorophenyl]-4-hydroxy-6-methyl-5-(1,3-thiazol-4-yl)pyridine-3-carboxamide], the IC50 against AXL and on Met was ≤ 100 nM throughout.

Consider `COc1cc2nccc(Oc3ccc(NC(=O)c4cnc(C)c(-c5cnoc5)c4O)cc3F)c2nc1OC` [Compound 140, N-[4-[(6,7-Dimethoxy-1,5-naphthyridin-4-yl)oxy]-3-fluorophenyl]-4-hydroxy-6-methyl-5-(1,2-oxazol-4-yl)pyridine-3-carboxamide], for which the IC50 against AXL and at Met was ≤ 100 nM throughout.

On to `COc1cc2nccc(Oc3ccc(NC(=O)c4c(C)nc(C)c(-c5cc(C)nn5C)c4O)cc3F)c2nc1OC` [Compound 109, N-[4-[(6,7-Dimethoxy-1,5-naphthyridin-4-yl)oxy]-3-fluoro-phenyl]-5-(2,5-dimethylpyrazol-3-yl)-4-hydroxy-2,6-dimethyl-pyridine-3-carboxamide], for which the IC50 at AXL and at Met was ≤ 100 nM in each case.

Turning to `COc1cnc2c(Oc3ccc(NC(=O)c4cnc(C)c(-c5ccsc5)c4O)cc3F)ccnc2c1` [Compound 98, N-[3-Fluoro-4-[(7-methoxy-1,5-naphthyridin-4-yl)oxy]phenyl]-4-hydroxy-6-methyl-5-(3-thienyl)pyridine-3-carboxamide], the IC50 against AXL and at Met was ≤ 100 nM throughout.

Turning to `COc1ccc2nccc(Oc3ccc(NC(=O)c4cnc(C)c(-c5ccco5)c4O)cc3F)c2n1` [Compound 118, N-[3-Fluoro-4-[(6-methoxy-1,5-naphthyridin-4-yl)oxy]phenyl]-5-(furan-2-yl)-4-hydroxy-6-methylpyridine-3-carboxamide], the IC50 against AXL and at Met was ≤ 100 nM throughout.

As for `COc1cc2nccc(Oc3ccc(NC(=O)c4c(C)n(C)c(C)c(-c5cccs5)c4=O)cc3)c2nc1OC` [Compound 167, N-[4-[(6,7-Dimethoxy-1,5-naphthyridin-4-yl)oxy]phenyl]-1,2,6-trimethyl-4-oxo-5-thiophen-2-ylpyridine-3-carboxamide], the IC50 on AXL and on Met was ≤ 100 nM throughout.

On to `CCc1ccc(-c2c(C)nc(C)c(C(=O)Nc3ccc(Oc4ccnc5cc(OC)c(OC)nc45)c(F)c3)c2O)o1` [Compound 147, N-[4-[(6,7-Dimethoxy-1,5-naphthyridin-4-yl)oxy]-3-fluorophenyl]-5-(5-ethylfuran-2-yl)-4-hydroxy-2,6-dimethylpyridine-3-carboxamide], for which the concentration for half-maximal inhibition (IC50) against AXL and at Met was ≤ 100 nM in each case.
